The source made the active and inactive calls. For most assays here, no stated cut-off is given here; in the data, actives have a measured EC50 and inactives only a lower limit.

Tested on in the first test: not listed separately
Description: NIH-3T3 fibroblast cytotoxicity, dose response, cytotoxicity control, cell-based, fluorescence, Alamar Blue, secondary assay (AID 2327).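 Further: NIH-3T3 mouse fibroblasts cultured with fluconazole at 8 µg/mL.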 Type of test: functional.
Settings: not given
For the molecule `O=C(O)CCCCCN1C(=O)/C(=C\c2ccncc2)SC1=S`, the 50% effective concentration (EC50) is 6.7 µM (inconclusive).

Turning to `O=C(Nc1nnc(-c2cccs2)o1)c1cccc(F)c1`, the EC50 is > 160 µM (inactive).

In the case of `CCCNC(=O)c1ccc2c(O)c(O)c(-c3ccc(Cl)c([N+](=O)[O-])c3)nc2c1`, the EC50 is > 150 µM (inactive).

Turning to `O=C(Nc1nnc(COc2ccc(F)cc2)s1)c1ccco1`, the EC50 was > 160 µM (inactive).

For `Cc1cc(O)c(/C=N/Nc2ccc(Cl)cc2)c(=O)o1`, the EC50 was 29.8 µM (active).

For the molecule `O=C(N/N=C/c1cc([N+](=O)[O-])ccc1O)C1C2CCCCC21` (stereo unspecified), the EC50 is > 150 µM (inactive).

Tested on in another test: not listed separately
Description: inhibitors of firefly luciferase expression or activity, dose response, H4 neuroglioma cells, luminescence (AID 1990). Type of test: functional, cell-based.
Settings: not given
Take `CCc1ccc(Oc2coc3cc(OCC(=O)Nc4cc(C)ccc4C)ccc3c2=O)cc1`: the EC50 was 18.5 µM (active).

With `COc1ccc2cc3c(N)nn(C(=O)C4CCC(C(C)(C)C)CC4)c3nc2c1` (stereo unspecified), the EC50 is 51.1 µM (active).

Take `COc1ccc(C)cc1N(C(=O)c1ccccc1F)c1nc2ccccc2s1`: the EC50 is > 120 µM (not active).

With `Cc1c(Cc2ccccc2)sc(NC(=O)/C=C/c2cccc3ccccc23)c1C(N)=O`, the EC50 was 13.3 µM (inconclusive).

As for `COc1cccc(/N=c2\oc3c(C)ncc(CO)c3cc2C(=O)Nc2ccccc2OC)c1`, the EC50 is on record as > 120 µM (not active).

For the next test, the target named is T1, RNA-binding protein pos-1 (Caenorhabditis elegans, UniProt G5EF15).
T1 sequence (G5EF15 whole entry): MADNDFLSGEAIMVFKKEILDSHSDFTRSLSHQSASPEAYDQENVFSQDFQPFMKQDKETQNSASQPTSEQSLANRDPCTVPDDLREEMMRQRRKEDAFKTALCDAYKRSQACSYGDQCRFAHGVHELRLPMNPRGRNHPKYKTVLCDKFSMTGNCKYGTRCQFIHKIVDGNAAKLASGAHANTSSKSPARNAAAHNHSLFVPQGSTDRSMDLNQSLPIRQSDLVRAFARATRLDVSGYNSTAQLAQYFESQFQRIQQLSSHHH
Description: inhibitors of POS-1/mex-3 RNA binding, dose response, biochemical, fluorescence polarization (AID 1964).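 Further: purified POS-1 fused to maltose binding protein made in E. coli; potency of compounds blocking POS-1 binding to fluorescent RNA.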
Settings: not given
Consider `COc1cc(C(CC(=O)N2CCCC2)c2c(OC)cc(OC)c3ccc(=O)oc23)cc(OC)c1OC` (stereo unspecified), for which the EC50 is 8.14 µM (inconclusive).

The subject of another test is Streptococcus sp. 'group A'. Description: growth inhibition of control SK(-) GAS strain, dose response, counter-screen for streptokinase expression inhibitor project, luminescence, kanamycin, BacTiterGlo, confirmation (AID 1900). In kind it is functional, organism-based.
Settings: not given
On to `COc1ccc2cc3c(N)nn(C(=O)C4CCC(C(C)(C)C)CC4)c3nc2c1` (stereo unspecified), for which the half-maximal effective concentration (EC50) is 2.15 µM (active).

Tested on in a further test: not listed separately
In words: Luminescence Cell-Based Dose Response HTS to Identify Inhibitors of 5'UTR Stem-Loop Driven Prion Protein mRNA Translation in H4 Neuroglioblastoma Cells. [Related pubchem assays: 1827 (Project Summary), 1813 (Primary HTS)].
Settings: not given
Type of test: functional.
Consider `CCc1ccc(Oc2coc3cc(OCC(=O)Nc4cc(C)ccc4C)ccc3c2=O)cc1`, for which the EC50 is 14.8 µM (active).

`COc1ccc2cc3c(N)nn(C(=O)C4CCC(C(C)(C)C)CC4)c3nc2c1` (stereo unspecified): the EC50 is 9.82 µM (active).

For `COc1ccc(C)cc1N(C(=O)c1ccccc1F)c1nc2ccccc2s1`, the concentration for a half-maximal effect (EC50) is given as > 120 µM (not active).

`Cc1c(Cc2ccccc2)sc(NC(=O)/C=C/c2cccc3ccccc23)c1C(N)=O`: the EC50 is 10.9 µM (active).

As to `COc1cccc(/N=c2\oc3c(C)ncc(CO)c3cc2C(=O)Nc2ccccc2OC)c1`, the EC50 is > 120 µM (not active).

Another test addresses T2, Zinc finger protein mex-5 (Caenorhabditis elegans, UniProt Q9XUB2).
T2 sequence (Q9XUB2 whole entry): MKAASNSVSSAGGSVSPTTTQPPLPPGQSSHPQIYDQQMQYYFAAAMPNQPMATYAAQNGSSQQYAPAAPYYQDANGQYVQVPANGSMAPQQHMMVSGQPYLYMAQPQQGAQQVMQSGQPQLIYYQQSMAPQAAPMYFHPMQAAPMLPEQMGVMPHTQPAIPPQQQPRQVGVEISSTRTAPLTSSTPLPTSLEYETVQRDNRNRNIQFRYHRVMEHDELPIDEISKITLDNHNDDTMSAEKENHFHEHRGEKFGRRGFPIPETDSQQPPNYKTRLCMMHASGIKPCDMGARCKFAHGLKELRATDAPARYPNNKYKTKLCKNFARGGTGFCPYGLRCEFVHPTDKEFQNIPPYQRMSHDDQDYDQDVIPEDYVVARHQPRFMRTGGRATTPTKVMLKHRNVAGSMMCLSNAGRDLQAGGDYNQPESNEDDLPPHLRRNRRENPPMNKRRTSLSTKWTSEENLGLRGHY
In words: MEX-5/TCR-2 RNA interaction inhibitors, dose response, biochemical, C. elegans, fluorescence polarization (AID 1960).
Settings: not given
For `COc1cc(C(CC(=O)N2CCCC2)c2c(OC)cc(OC)c3ccc(=O)oc23)cc(OC)c1OC` (stereo unspecified), the EC50 was 16.2 µM (active).

Tested on in a further test: not listed separately
In words: inhibitors of SNCA 5'UTR-driven reporter translation, confirmation, H4 neuroglioma cells, luminescence (AID 1988). In kind it is functional, cell-based.
Settings: not given
For the molecule `CCc1ccc(Oc2coc3cc(OCC(=O)Nc4cc(C)ccc4C)ccc3c2=O)cc1`, the EC50 was 9.97 µM (active).

Turning to `COc1ccc2cc3c(N)nn(C(=O)C4CCC(C(C)(C)C)CC4)c3nc2c1` (stereo unspecified), the concentration giving a half-maximal response (EC50) is 12.3 µM (active).

For the molecule `COc1ccc(C)cc1N(C(=O)c1ccccc1F)c1nc2ccccc2s1`, the half-maximal effective concentration (EC50) was > 120 µM (not active).

On to `Cc1c(Cc2ccccc2)sc(NC(=O)/C=C/c2cccc3ccccc23)c1C(N)=O`, for which the EC50 was 5.84 µM (active).

`COc1cccc(/N=c2\oc3c(C)ncc(CO)c3cc2C(=O)Nc2ccccc2OC)c1`: the EC50 was > 120 µM (not active).

A further test addresses T3, Streptokinase A (Streptococcus pyogenes serotype M1, UniProt P10520).
T3 sequence (P10520 whole entry): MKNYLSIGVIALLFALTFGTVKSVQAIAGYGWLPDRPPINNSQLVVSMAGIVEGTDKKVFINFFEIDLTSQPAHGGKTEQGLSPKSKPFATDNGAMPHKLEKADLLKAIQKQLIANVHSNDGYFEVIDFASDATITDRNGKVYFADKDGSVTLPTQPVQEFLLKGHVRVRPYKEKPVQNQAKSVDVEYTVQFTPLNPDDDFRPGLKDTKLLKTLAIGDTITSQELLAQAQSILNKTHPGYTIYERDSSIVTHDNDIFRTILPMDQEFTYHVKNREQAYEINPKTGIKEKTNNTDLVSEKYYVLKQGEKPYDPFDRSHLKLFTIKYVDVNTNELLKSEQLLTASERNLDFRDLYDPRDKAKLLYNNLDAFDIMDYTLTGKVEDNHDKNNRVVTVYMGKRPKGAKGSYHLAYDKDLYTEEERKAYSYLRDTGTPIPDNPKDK
Description: S. pyogenes streptokinase expression inhibitors, potency, dose response, plasminogen activation absorbance, OD405 (AID 1914).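 Further: secreted streptokinase activity via plasminogen activation per viability signal from cell pellet.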 In kind it is functional, Streptococcus pyogenes M1 GAS.
Settings: not given
Turning to `COc1ccc2cc3c(N)nn(C(=O)C4CCC(C(C)(C)C)CC4)c3nc2c1` (stereo unspecified), the EC50 is reported as > 150 µM (not active).

Tested on in a further test: not listed separately
Description: C. albicans growth with fluconazole, confirmation, fluorescence, retest (AID 2467). In kind it is functional, cell-based.
Settings: not given
Consider `O=C(O)CCCCCN1C(=O)/C(=C\c2ccncc2)SC1=S`, for which the EC50 was 1.45 µM (active).

Consider `O=C(Nc1nnc(-c2cccs2)o1)c1cccc(F)c1`, for which the EC50 is 1.25 µM (active).

As for `CCCNC(=O)c1ccc2c(O)c(O)c(-c3ccc(Cl)c([N+](=O)[O-])c3)nc2c1`, the concentration giving a half-maximal response (EC50) was 2.18 µM (active).

As to `O=C(Nc1nnc(COc2ccc(F)cc2)s1)c1ccco1`, the EC50 was 3.15 µM (active).

Regarding `Cc1cc(O)c(/C=N/Nc2ccc(Cl)cc2)c(=O)o1`, the EC50 was 0.273 µM (active).

For `O=C(N/N=C/c1cc([N+](=O)[O-])ccc1O)C1C2CCCCC21` (stereo unspecified), the EC50 is 2.35 µM (active).

Tested on in another test: not listed separately
In words: growth suppression of PTEN-null colon cells, dose response, cell-based, HCT116 PTEN knockout (AID 1047).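 Further: HCT116 colon tumor cells with PTEN knocked out; cells exposed to compound for 60 hours before readout; potency for loss of cell viability measured by luminescence.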 Type of test: functional.
Settings: not given
Turning to `O=C(Nc1nnc(-c2cccs2)o1)c1cccc(F)c1`, the half-maximal effective concentration (EC50) is 10.5 µM (active).

Consider `Cn1c(C(=O)NC2CCCCCC2)cc2c(=O)n(C)c3ccccc3c21`, for which the EC50 is 24.4 µM (active).

As for `CCCOc1nc2c(c(=O)n(C)c(=O)n2C)n1Cc1cccc2ccccc12`, the concentration for a half-maximal effect (EC50) is 49 µM (active).

Regarding `Cc1ccc(Cl)cc1NC(=O)c1ccccc1OCC(=O)Nc1ccc(Cl)cc1`, the EC50 was 8.82 µM (active).

Tested on in the next test: not listed separately
In words: growth suppression of beta-catenin-knockout colon cells, dose response, cell-based, HCT116, human colon tumor (AID 1045).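 Further: HCT116 colon tumor cells with beta catenin knocked out; cells exposed to compound for 60 hours.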 In kind it is functional.
Settings: not given
Consider `O=C(Nc1nnc(-c2cccs2)o1)c1cccc(F)c1`, for which the EC50 was 8.96 µM (active).

For `Cn1c(C(=O)NC2CCCCCC2)cc2c(=O)n(C)c3ccccc3c21`, the concentration giving a half-maximal response (EC50) was 21.1 µM (active).

For `CCCOc1nc2c(c(=O)n(C)c(=O)n2C)n1Cc1cccc2ccccc12`, the 50% effective concentration (EC50) is 27.1 µM (active).

As for `Cc1ccc(Cl)cc1NC(=O)c1ccccc1OCC(=O)Nc1ccc(Cl)cc1`, the EC50 was 10.9 µM (active).

The test system of another test is Streptococcus. Description: Group A Streptococcus viability loss, dose response, counter-screen for streptokinase expression inhibitor project, luminescence, BacTiterGlo (AID 1915).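 Further: potency for reduction of bacterial viability or growth.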 Type of test: functional, organism-based.
Settings: not given
As to `COc1ccc2cc3c(N)nn(C(=O)C4CCC(C(C)(C)C)CC4)c3nc2c1` (stereo unspecified), the EC50 is 4.71 µM (active).

Tested on in a further test: not listed separately
Description: Luminescence Cell-Based Dose Retest to Confirm Inhibitors of Cancer Stem Cells. [Related pubchem assays (depositor defined):AID2717, AID2721]. In kind it is functional. The conditions noted are these: Homo sapiens.
Consider `Cc1ccc(Cl)cc1NC(=O)c1ccccc1OCC(=O)Nc1ccc(Cl)cc1`, for which the AC50 was 10.6 µM (inconclusive).

Tested on in another test: not listed separately
In words: cells.
Settings: not given
In kind it is functional.
Consider `O=C(O)CCCCCN1C(=O)/C(=C\c2ccncc2)SC1=S`, for which the IC50 is 23.6 µM (active).

The next test has as its system INS1. In words: beta cell apoptosis inhibitors, cytokine rescue, dose response, luminescence, retest (AID 449756).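 Further: cell death triggered by IL-1 beta plus TNF-alpha plus IFN-gamma mixture; protective hits raise ATP signal compared with cytokine alone wells.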 Type of test: functional, cell-based. The conditions noted are these: Rattus norvegicus.
With `CCCNC(=O)c1ccc2c(O)c(O)c(-c3ccc(Cl)c([N+](=O)[O-])c3)nc2c1`, the AC50 was 5.06 µM (active).

Take `CCCOc1nc2c(c(=O)n(C)c(=O)n2C)n1Cc1cccc2ccccc12`: the AC50 is 6.39 µM (active).

Another test deals with T4, Polyadenylate-binding protein 1 (Homo sapiens, UniProt P11940). In words: PABP1 MLLE–PAM2 interaction inhibitors, dose response, miRNA deadenylation inhibitor project, biochemical, fluorescence polarization, Cy5-PAM2 peptide, secondary (AID 602260). In kind it is functional. The conditions noted are these: read-out: IC50_Mean.
T4 sequence (P11940 whole entry): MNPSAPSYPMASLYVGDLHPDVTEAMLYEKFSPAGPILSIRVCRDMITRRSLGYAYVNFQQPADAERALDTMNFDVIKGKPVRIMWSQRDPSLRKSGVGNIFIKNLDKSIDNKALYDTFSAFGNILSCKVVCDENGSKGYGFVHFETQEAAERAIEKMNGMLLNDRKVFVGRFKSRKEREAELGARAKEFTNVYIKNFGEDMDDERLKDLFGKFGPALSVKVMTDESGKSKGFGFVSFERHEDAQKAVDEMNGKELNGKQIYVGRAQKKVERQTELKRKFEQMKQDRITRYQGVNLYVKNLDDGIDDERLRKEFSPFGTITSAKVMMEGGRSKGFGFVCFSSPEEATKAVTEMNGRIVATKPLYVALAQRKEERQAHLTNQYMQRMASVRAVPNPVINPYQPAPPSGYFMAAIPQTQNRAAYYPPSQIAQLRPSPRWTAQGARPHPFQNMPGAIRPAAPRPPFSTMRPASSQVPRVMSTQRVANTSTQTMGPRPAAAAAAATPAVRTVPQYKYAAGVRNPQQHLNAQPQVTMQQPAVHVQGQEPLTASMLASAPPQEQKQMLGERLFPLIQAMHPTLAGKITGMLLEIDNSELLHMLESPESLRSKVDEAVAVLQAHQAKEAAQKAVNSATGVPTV
In the case of `COc1cc(C(CC(=O)N2CCCC2)c2c(OC)cc(OC)c3ccc(=O)oc23)cc(OC)c1OC` (stereo unspecified), the IC50 is > 66 µM (inactive).

In a further test the target is T4, Polyadenylate-binding protein 1. Description: PABP1 MLLE–PAM2 binding inhibitor potency, dose response, biochemical, fluorescence polarization, FITC-PAM2 peptide (AID 602259). The conditions noted are these: read-out: IC50_Mean. In kind it is functional.
In the case of `COc1cc(C(CC(=O)N2CCCC2)c2c(OC)cc(OC)c3ccc(=O)oc23)cc(OC)c1OC` (stereo unspecified), the IC50 was 60.3 µM (inactive).
